Test results published in the supplement of paper PMC10627819.
≈ marks a conversion by molar mass, not a printed value.

How the values were obtained:
B. subtilis 168 [1] = test system: B. subtilis 168
S. pneumoniae D39V [2] = test system: S. pneumoniae D39V
S. pneumoniae D39V [3] = test: fitness (endpoint OD595 vs no drug) (fraction); higher = more growth
Outline: (§1)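 Background-subtracted growth curves were the basis for fitness, taken as the optical density at entry into stationary phase over the robust mean of no-drug control wells. A cap of 1 was applied. The curves came from OD595 readings every 30 min for 14 h at 37 °C, in 384-well plates seeded at OD595 0.01 with 30 µl, or 55 µl for S. pneumoniae.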

S. aureus DSM 20231 [4] = test system: S. aureus DSM 20231
S. aureus Newman [5] = test system: S. aureus Newman
B. subtilis 168 [6] = test: fitness (endpoint OD595 vs no drug) (fraction); higher = more growth
Outline: as §1

S. aureus Newman [7] = test: as above
Outline: as §1

S. aureus DSM 20231 [8] = test: as above
Outline: as §1

N#CC(C#N)=NNc1cccc(Cl)c1 [CCCP]
Conditions	MIC [µg/mL]
B. subtilis 168 [1]	2.3 (≈ 11.2 µM)
S. pneumoniae D39V [2]	4.5 (≈ 22 µM)

S. pneumoniae D39V [3]
Conditions	fitness
0.575 µg/mL	0.981
1.15 µg/mL	0.968
2.3 µg/mL	0.942

CO/N=C(\C(=O)N[C@@H]1C(=O)N2C(C(=O)O)=C(COC(N)=O)CS[C@H]12)c1ccco1 [Cefuroxime]
Conditions	MIC [µg/mL]
B. subtilis 168 [1]	2 (≈ 4.71 µM)
S. aureus DSM 20231 [4]	0.25 (≈ 0.589 µM)
S. aureus Newman [5]	0.25 (≈ 0.589 µM)
S. pneumoniae D39V [2]	0.25 (≈ 0.589 µM)

B. subtilis 168 [6]
Conditions	fitness
0.195 µg/mL	0.319
0.39 µg/mL	0.26
0.78 µg/mL	0.212
1.562 µg/mL	0.332
3.125 µg/mL	0.264
6.25 µg/mL	0.227

C[C@H]1c2cccc(O)c2C(=O)C2=C(O)[C@]3(O)C(=O)C(C(N)=O)=C(O)[C@@H](N(C)C)[C@@H]3[C@@H](O)[C@@H]21 [Doxycycline]
Conditions	MIC [µg/mL]
B. subtilis 168 [1]	0.08 (≈ 0.18 µM)
S. aureus DSM 20231 [4]	0.034 (≈ 0.0765 µM)

fitness
Conditions	0.0155 µg/mL	0.02 µg/mL	0.031 µg/mL	0.04 µg/mL	0.062 µg/mL	0.08 µg/mL
B. subtilis 168 [6]	–	0.876	–	0.754	–	0.457
S. pneumoniae D39V [3]	0.789	–	0.73	–	0.59	–

CC1(C)S[C@@H]2[C@H](NC(=O)Cc3ccccc3)C(=O)N2[C@H]1C(=O)O [Penicillin G]
Conditions	MIC [µg/mL]
S. aureus DSM 20231 [4]	0.087 (≈ 0.26 µM)
S. aureus Newman [5]	0.087 (≈ 0.26 µM)
S. pneumoniae D39V [2]	0.016 (≈ 0.0478 µM)

fitness
Conditions	0.0018 µg/mL	0.0035 µg/mL	0.007 µg/mL	0.014 µg/mL	0.0195 µg/mL	0.039 µg/mL	0.078 µg/mL
S. aureus Newman [7]	–	–	–	–	0.928	0.892	0.886
S. pneumoniae D39V [3]	0.932	0.944	0.817	0.425	–	–	–

O=C(O)c1cn(C2CC2)c2cc(N3CCNCC3)c(F)cc2c1=O [Ciprofloxacin]
Conditions	MIC [µg/mL]
S. aureus DSM 20231 [4]	0.312 (≈ 0.942 µM)
S. aureus Newman [5]	0.156 (≈ 0.471 µM)
S. pneumoniae D39V [2]	1 (≈ 3.02 µM)

fitness
Conditions	0.0098 µg/mL	0.0195 µg/mL	0.0375 µg/mL	0.039 µg/mL	0.075 µg/mL	0.078 µg/mL	0.15 µg/mL	0.156 µg/mL	0.312 µg/mL
B. subtilis 168 [6]	0.871	0.777	–	0.135	–	–	–	–	–
S. aureus DSM 20231 [8]	–	–	1	–	0.978	0.899	0.77	0.754	0.456
S. aureus Newman [7]	–	–	0.801	–	0.597	0.708	0.0387	0.267	0.0879

Cc1ncc([N+](=O)[O-])n1CCO [Metronidazole]
Conditions	MIC [µg/mL]
B. subtilis 168 [1]	5 (≈ 29.2 µM)
S. aureus DSM 20231 [4]	3 (≈ 17.5 µM)
S. aureus Newman [5]	3 (≈ 17.5 µM)
S. pneumoniae D39V [2]	10 (≈ 58.4 µM)

fitness
Conditions	0.625 µg/mL	0.781 µg/mL	1.25 µg/mL	1.562 µg/mL	2.5 µg/mL	3.124 µg/mL	5 µg/mL
B. subtilis 168 [6]	0.955	–	0.946	–	0.94	–	–
S. aureus DSM 20231 [8]	≥ 1	–	≥ 1	–	≥ 1	–	–
S. aureus Newman [7]	≥ 1	≥ 1	≥ 1	≥ 1	≥ 1	0.999	–
S. pneumoniae D39V [3]	–	–	≥ 1	–	≥ 1	–	0.997

C[C@@H]1O[C@@H]1P(=O)(O)O [Fosfomycin]
Conditions	MIC [µg/mL]
B. subtilis 168 [1]	12.5 (≈ 90.5 µM)
S. aureus DSM 20231 [4]	3.5 (≈ 25.4 µM)
S. aureus Newman [5]	3.5 (≈ 25.4 µM)
S. pneumoniae D39V [2]	6.25 (≈ 45.3 µM)

Conditions	fitness
B. subtilis 168 [6], 1.562 µg/mL	0.712
B. subtilis 168 [6], 3.124 µg/mL	0.594
B. subtilis 168 [6], 6.248 µg/mL	0.422
S. aureus DSM 20231 [8], 0.781 µg/mL	0.875
S. aureus DSM 20231 [8], 1.562 µg/mL	0.693
S. aureus DSM 20231 [8], 3.124 µg/mL	0.535
S. aureus Newman [7], 0.781 µg/mL	0.686
S. aureus Newman [7], 1.562 µg/mL	0.485
S. aureus Newman [7], 3.124 µg/mL	0.123
S. pneumoniae D39V [3], 1.25 µg/mL	0.966
S. pneumoniae D39V [3], 2.5 µg/mL	0.895
S. pneumoniae D39V [3], 5 µg/mL	0.716

CC(=O)Oc1ccccc1C(=O)O [Acetylsalicylic acid]
Conditions	MIC [µg/mL]
B. subtilis 168 [1]	2000 (≈ 11100 µM)
S. aureus DSM 20231 [4]	1000 (≈ 5550 µM)
S. aureus Newman [5]	2000 (≈ 11100 µM)
S. pneumoniae D39V [2]	2000 (≈ 11100 µM)

fitness
Conditions	B. subtilis 168 [6]	S. aureus DSM 20231 [8]	S. pneumoniae D39V [3]
250 µg/mL	0.948	0.991	0.967
500 µg/mL	0.911	0.888	0.965
1000 µg/mL	0.745	0.522	0.924

CN(C)c1cc(NC(=O)CNC(C)(C)C)c(O)c2c1C[C@H]1C[C@H]3[C@H](N(C)C)C(O)=C(C(N)=O)C(=O)[C@@]3(O)C(O)=C1C2=O [Tigecycline]
Conditions	MIC [µg/mL]
B. subtilis 168 [1]	0.312 (≈ 0.533 µM)
S. aureus DSM 20231 [4]	0.18 (≈ 0.307 µM)
S. aureus Newman [5]	0.18 (≈ 0.307 µM)
S. pneumoniae D39V [2]	3 (≈ 5.12 µM)

Conditions	fitness
B. subtilis 168 [6], 0.039 µg/mL	0.953
B. subtilis 168 [6], 0.078 µg/mL	0.95
B. subtilis 168 [6], 0.156 µg/mL	0.933
S. aureus Newman [7], 0.039 µg/mL	0.975
S. aureus Newman [7], 0.078 µg/mL	0.959
S. aureus Newman [7], 0.156 µg/mL	0.973
S. pneumoniae D39V [3], 0.325 µg/mL	0.971
S. pneumoniae D39V [3], 0.65 µg/mL	0.959
S. pneumoniae D39V [3], 1.3 µg/mL	0.966
S. pneumoniae D39V [3], 2.6 µg/mL	0.965

COc1ccc(C[C@H](N)C(=O)N[C@H]2[C@@H](O)[C@H](n3cnc4c(N(C)C)ncnc43)O[C@@H]2CO)cc1 [Puromycin]
Conditions	MIC [µg/mL]
B. subtilis 168 [1]	1.56 (≈ 3.31 µM)
S. aureus DSM 20231 [4]	1.8 (≈ 3.82 µM)
S. aureus Newman [5]	1.8 (≈ 3.82 µM)
S. pneumoniae D39V [2]	12.5 (≈ 26.5 µM)

fitness
Conditions	0.39 µg/mL	0.78 µg/mL	1 µg/mL	1.56 µg/mL	2 µg/mL	4 µg/mL
B. subtilis 168 [6]	0.931	0.929	–	0.94	–	–
S. aureus DSM 20231 [8]	≥ 1	≥ 1	–	≥ 1	–	–
S. aureus Newman [7]	0.985	0.993	–	≥ 1	–	–
S. pneumoniae D39V [3]	–	–	≥ 1	–	0.977	0.76

COc1cccc2c1C(=O)c1c(O)c3c(c(O)c1C2=O)C[C@@](O)(C(=O)CO)C[C@@H]3O[C@H]1C[C@H](N)[C@H](O)[C@H](C)O1 [Doxorubicin]
Conditions	MIC [µg/mL]
B. subtilis 168 [1]	5 (≈ 9.2 µM)
S. aureus DSM 20231 [4]	2.78 (≈ 5.11 µM)
S. aureus Newman [5]	2.78 (≈ 5.11 µM)
S. pneumoniae D39V [2]	1.2 (≈ 2.21 µM)

fitness
Conditions	0.25 µg/mL	0.5 µg/mL	0.625 µg/mL	1 µg/mL	1.25 µg/mL	2.5 µg/mL
B. subtilis 168 [6]	–	–	0.946	–	0.918	0.816
S. aureus DSM 20231 [8]	–	–	0.967	–	0.907	0.827
S. aureus Newman [7]	–	–	0.896	–	0.791	0.68
S. pneumoniae D39V [3]	0.86	0.903	–	0.781	–	–

CO/N=C(\C(=O)N[C@@H]1C(=O)N2C(C(=O)O)=C(COC(C)=O)CS[C@H]12)c1csc(N)n1 [Cefotaxime]
Conditions	MIC [µg/mL]
S. aureus DSM 20231 [4]	0.173 (≈ 0.38 µM)
S. aureus Newman [5]	2.5 (≈ 5.49 µM)
S. pneumoniae D39V [2]	0.008 (≈ 0.0176 µM)

Conditions	fitness
B. subtilis 168 [6], 0.0625 µg/mL	0.477
B. subtilis 168 [6], 0.125 µg/mL	0.338
B. subtilis 168 [6], 0.25 µg/mL	0.205
B. subtilis 168 [6], 0.5 µg/mL	0.113
B. subtilis 168 [6], 1 µg/mL	0.0654
B. subtilis 168 [6], 2 µg/mL	0.0508
S. aureus DSM 20231 [8], 0.039 µg/mL	0.935
S. aureus DSM 20231 [8], 0.078 µg/mL	0.869
S. aureus DSM 20231 [8], 0.155 µg/mL	0.951
S. aureus DSM 20231 [8], 0.156 µg/mL	0.844
S. aureus DSM 20231 [8], 0.31 µg/mL	0.825
S. aureus DSM 20231 [8], 0.312 µg/mL	0.676
S. aureus DSM 20231 [8], 0.62 µg/mL	0.669
S. aureus Newman [7], 0.039 µg/mL	0.829
S. aureus Newman [7], 0.078 µg/mL	0.786
S. aureus Newman [7], 0.156 µg/mL	0.729
S. aureus Newman [7], 0.312 µg/mL	0.462
S. aureus Newman [7], 0.625 µg/mL	0.0743
S. aureus Newman [7], 1.25 µg/mL	0.022
S. aureus Newman [7], 2.5 µg/mL	0.021
S. pneumoniae D39V [3], 0.0018 µg/mL	≥ 1
S. pneumoniae D39V [3], 0.0035 µg/mL	0.998
S. pneumoniae D39V [3], 0.007 µg/mL	0.83
